Experimental findings from PMC11239390, “Glycoside-metabolizing oxidoreductase D3dgpA from human gut bacterium” (Frontiers in Bioengineering and Biotechnology, 2024) are described below.

Series [1] concerns the target T1, D3dgpA (human intestinal bacterium PUE, UniProt A0A3Q9WWX8).
T1 construct: gene dgpA; full length, 367 residues; His6-tag; pET-duet 1 (EcoRI/SalI), E. coli BL21 (DE3), Ni-NTA; about 45 kD; hexamer in solution; co-purifies with NAD(H)
T1 sequence (A0A3Q9WWX8 1-367): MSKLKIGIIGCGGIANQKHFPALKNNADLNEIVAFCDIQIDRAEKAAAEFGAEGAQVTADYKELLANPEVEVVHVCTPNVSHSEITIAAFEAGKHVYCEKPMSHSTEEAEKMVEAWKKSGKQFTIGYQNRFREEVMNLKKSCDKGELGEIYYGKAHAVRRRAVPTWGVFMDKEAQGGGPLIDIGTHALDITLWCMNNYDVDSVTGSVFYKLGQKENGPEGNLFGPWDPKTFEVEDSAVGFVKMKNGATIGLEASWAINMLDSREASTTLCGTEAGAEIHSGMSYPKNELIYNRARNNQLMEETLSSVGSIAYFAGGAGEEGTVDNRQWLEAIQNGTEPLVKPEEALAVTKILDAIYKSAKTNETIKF
As to the kind of experiment: HPLC of […]”-oxo-puerarin formation with and without monosaccharide. Format: biochemical. The note with it: 400 eq puerarin and methyl β-D-3-oxo-glucopyranoside, 800 eq monosaccharide to enzyme; 5 mM HEPES pH 7.5, 36.5°C, 10 min.

The target in series [2] is T1, D3dgpA. Put plainly: HPLC analysis of nucleotide co-purified with enzyme. Format: binding. Particulars: bound in purified enzyme as isolated.
Series [3] concerns the target D3dgpA, Gfo/Idh/MocA family glycoside oxidoreductase (dgpA cloned from Dorea sp. MRG-IFC3) (Dorea sp. MRG-IFC3). Put plainly: not stated; purified His6-tagged D3dgpA in solution; the method is shown only in Supplementary Figure S5.
Substrate in the series “purified protein”: O=c1c(-c2ccc(O)cc2)coc2c([C@@H]3O[C@H](CO)[C@@H](O)[C@H](O)[C@H]3O)c(O)ccc12
Put plainly: purified protein. It is filed as biochemical, human intestinal bacterium PUE. Particulars: co-substrate 760 μM methyl β-D-3-oxo-glucopyranoside, 5 mM HEPES pH 7.5, 5 mM NaCl, 36.5°C.

Take `OC[C@H]1OC(O)[C@H](O)[C@@H](O)[C@@H]1O` (stereo partly drawn) [D-glucose]: the relative inhibition entry on D3dgpA [1] was “D-glucose exhibited the most inhibitory effects on the oxidation of puerarin”.

As to `NC(=O)c1ccc[n+]([C@@H]2O[C@H](COP(=O)(O)OP(=O)(O)OC[C@H]3O[C@@H](n4cnc5c(N)ncnc54)[C@H](O)[C@@H]3O)[C@@H](O)[C@H]2O)c1` [NAD^+], the “HPLC analysis of nucleotide co-purified with enzyme” value on D3dgpA [2] was “The purified D3dgpA was found to contain an almost equimolar amount of NAD(H)”. Turning to `O[C@@H]1[C@@H](O)[C@@H]2OC[C@@H](O2)[C@H]1O` [levoglucosan], the relative inhibition result on D3dgpA [1] was “decreased in the order of D-glucose > methyl ß-glucoside > methyl α-glucoside ≈ levoglucosan”. As for `CO[C@H]1O[C@H](CO)[C@@H](O)[C@H](O)[C@H]1O` [methyl α-glucopyranoside], the relative inhibition entry at D3dgpA [1] was “decreased in the order of D-glucose > methyl ß-glucoside > methyl α-glucoside ≈ levoglucosan”. Turning to `CO[C@@H]1O[C@H](CO)[C@@H](O)[C@H](O)[C@H]1O` [methyl β-glucopyranoside], the relative inhibition result on D3dgpA [1] is “decreased in the order of D-glucose > methyl ß-glucoside > methyl α-glucoside ≈ levoglucosan”. On to “D3dgpA, Gfo/Idh/MocA family glycoside oxidoreductase (dgpA cloned from Dorea sp. MRG-IFC3) (enzyme)”, for which the stoichiometry N (usually a count of units in the complex or per binding partner) in series [3] was found to be 6.

B1: D3dgpA (human intestinal bacterium PUE) (protein)
chain: T1 sequence (A0A3Q9WWX8 1-367)
notes: full length, 367 residues; His6-tag; pET-duet 1 (EcoRI/SalI), E. coli BL21 (DE3), Ni-NTA; about 45 kD; hexamer in solution; co-purifies with NAD(H)
With B1, in “purified protein”, the Km (commonly the concentration of substrate that gives half-maximal velocity) was found to be 250 µM; the kcat (in general, the number of substrate molecules converted per active site and unit of time at saturation) was found to be 32 s⁻¹.
